Data as given in paper PMC9814544 (Communications Chemistry, 2020).

Molecular target: T1, hERG channel (Homo sapiens, UniProt Q12809)
T1 construct: expressed in transfected cells; host or cells: HEK293
Assay: hERG patch-clamp in HEK293 cells
Assay type: cell-based
Protocol: hERG-mediated membrane currents are recorded in HEK (human embryonic kidney) 293 cells stably transfected with hERG cDNA, using the whole-cell configuration of the patch-clamp technique as previously described. The number of experiments for BI-0115 is n = 1.

T1 sequence (Q12809 whole entry): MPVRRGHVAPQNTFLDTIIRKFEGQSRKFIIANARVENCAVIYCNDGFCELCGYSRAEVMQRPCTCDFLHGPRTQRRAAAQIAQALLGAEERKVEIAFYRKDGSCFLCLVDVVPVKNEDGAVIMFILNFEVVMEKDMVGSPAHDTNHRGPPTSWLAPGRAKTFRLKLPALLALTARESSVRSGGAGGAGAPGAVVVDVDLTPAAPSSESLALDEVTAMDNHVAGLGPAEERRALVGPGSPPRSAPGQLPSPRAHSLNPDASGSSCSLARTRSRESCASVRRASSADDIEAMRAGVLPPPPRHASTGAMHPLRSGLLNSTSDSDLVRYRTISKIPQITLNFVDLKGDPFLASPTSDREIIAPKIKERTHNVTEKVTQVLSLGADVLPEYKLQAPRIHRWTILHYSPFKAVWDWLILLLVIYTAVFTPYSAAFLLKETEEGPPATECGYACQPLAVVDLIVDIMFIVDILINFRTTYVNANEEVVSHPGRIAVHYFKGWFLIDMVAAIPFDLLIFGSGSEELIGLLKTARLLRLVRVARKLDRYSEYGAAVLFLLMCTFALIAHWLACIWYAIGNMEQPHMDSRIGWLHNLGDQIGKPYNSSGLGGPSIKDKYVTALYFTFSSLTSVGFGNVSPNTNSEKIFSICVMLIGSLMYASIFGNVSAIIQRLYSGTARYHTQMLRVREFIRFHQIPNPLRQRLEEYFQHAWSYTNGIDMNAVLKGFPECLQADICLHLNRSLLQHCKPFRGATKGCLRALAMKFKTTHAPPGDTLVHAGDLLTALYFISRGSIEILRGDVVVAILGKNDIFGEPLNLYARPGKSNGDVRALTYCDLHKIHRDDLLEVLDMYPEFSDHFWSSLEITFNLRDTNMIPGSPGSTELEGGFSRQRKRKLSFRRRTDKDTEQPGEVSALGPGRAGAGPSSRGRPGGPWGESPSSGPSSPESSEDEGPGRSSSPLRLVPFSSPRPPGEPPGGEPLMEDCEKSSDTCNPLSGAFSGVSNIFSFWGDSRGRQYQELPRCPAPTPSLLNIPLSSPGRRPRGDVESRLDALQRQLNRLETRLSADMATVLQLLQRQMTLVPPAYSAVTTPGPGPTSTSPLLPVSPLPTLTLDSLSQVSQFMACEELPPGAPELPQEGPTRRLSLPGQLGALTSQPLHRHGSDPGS

SMILES: CCCN1C(=O)c2ccc(Cl)cc2Nc2ncccc21 [BI-0115]
- inhibition of the hERG channel (in words): no inhibition
- IC50 (whole-cell patch-clamp, n = 1): > 10 µM
